Results from publication PMC8766756, “Insights on Cancer Cell Inhibition, Subcellular Activities, and Kinase Profile of Phenylacetamides Pending 1H-Imidazol-5-One Variants” (Frontiers in Pharmacology, 2022).
Values joined by “and” are separate entries in the source; they are usually repeats but may differ in a detail not shown here. Identical values can stand only once.

Columns and labels:
Test in all cases: PamChip tyrosine kinase microarray
Format in all cases: biochemical
Details in all cases: 0.1 µM, HL60 lysate
FAK2 (Q14289) = target: T1, FAK2 (Q14289) (Homo sapiens, UniProt Q14289)
T1 construct: purchased PamGene (PamChip PTK array, Upstream Kinase Analysis)
How it was run: (§1)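 HL60 (AML) cell lysate was spiked with compound at 0.001, 0.01, 0.1, 1, 10 and 50 µM, or 2% v/v DMSO as control, then profiled in technical replicates on a tyrosine kinase peptide array of 196 phosphosites. Kinase activity was inferred from peptide-set changes using an upstream kinase tool.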

ZAP70 (P43403) = target: T2, ZAP70 (P43403) (Homo sapiens, UniProt P43403)
T2 construct: purchased PamGene (PamChip PTK array, Upstream Kinase Analysis)
T2 sequence (P43403 1-619): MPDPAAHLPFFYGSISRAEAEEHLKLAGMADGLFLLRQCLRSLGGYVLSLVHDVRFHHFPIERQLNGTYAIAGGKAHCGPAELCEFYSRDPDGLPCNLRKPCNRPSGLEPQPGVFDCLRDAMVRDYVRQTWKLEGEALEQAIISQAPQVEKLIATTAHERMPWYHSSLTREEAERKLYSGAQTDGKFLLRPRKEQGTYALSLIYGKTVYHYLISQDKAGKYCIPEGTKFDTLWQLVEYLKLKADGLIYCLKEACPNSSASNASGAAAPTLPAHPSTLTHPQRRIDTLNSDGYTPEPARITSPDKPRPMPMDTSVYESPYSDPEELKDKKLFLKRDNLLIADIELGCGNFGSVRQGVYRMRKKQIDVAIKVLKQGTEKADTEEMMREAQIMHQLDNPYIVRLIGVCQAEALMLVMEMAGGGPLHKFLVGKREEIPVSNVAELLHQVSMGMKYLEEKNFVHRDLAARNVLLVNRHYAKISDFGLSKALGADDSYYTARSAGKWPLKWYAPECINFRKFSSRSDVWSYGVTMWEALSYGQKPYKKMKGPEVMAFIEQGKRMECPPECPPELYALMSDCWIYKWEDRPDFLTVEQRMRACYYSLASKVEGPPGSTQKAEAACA
How it was run: as §1

FGFR2 (P21802) = target: T3, FGFR2 (P21802) (Homo sapiens, UniProt P21802)
T3 construct: purchased PamGene (PamChip PTK array, Upstream Kinase Analysis)
T3 sequence (P21802 22-821): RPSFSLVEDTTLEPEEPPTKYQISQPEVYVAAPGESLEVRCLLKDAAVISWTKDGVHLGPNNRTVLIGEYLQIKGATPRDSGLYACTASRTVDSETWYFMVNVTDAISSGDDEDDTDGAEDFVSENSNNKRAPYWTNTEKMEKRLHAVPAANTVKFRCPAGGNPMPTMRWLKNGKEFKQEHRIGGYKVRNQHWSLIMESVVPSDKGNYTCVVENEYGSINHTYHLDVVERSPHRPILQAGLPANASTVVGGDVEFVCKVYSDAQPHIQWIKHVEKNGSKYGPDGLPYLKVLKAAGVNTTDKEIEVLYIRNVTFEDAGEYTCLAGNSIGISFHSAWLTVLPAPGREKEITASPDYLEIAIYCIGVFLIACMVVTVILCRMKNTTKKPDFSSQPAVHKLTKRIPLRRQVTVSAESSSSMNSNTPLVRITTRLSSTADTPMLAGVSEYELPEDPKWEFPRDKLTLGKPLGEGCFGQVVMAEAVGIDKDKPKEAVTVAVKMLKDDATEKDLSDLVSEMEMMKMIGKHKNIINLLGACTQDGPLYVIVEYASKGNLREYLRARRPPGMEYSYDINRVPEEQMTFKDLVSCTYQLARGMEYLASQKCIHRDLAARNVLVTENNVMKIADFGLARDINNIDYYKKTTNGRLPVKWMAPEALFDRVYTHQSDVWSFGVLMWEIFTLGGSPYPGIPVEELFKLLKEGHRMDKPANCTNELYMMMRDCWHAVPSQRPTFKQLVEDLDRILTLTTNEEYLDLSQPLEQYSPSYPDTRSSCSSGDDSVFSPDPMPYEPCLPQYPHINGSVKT
How it was run: as §1

JAK2 (O60674) = target: T4, JAK2 (O60674) (Homo sapiens, UniProt O60674)
T4 construct: purchased PamGene (PamChip PTK array, Upstream Kinase Analysis)
T4 sequence (O60674 whole entry): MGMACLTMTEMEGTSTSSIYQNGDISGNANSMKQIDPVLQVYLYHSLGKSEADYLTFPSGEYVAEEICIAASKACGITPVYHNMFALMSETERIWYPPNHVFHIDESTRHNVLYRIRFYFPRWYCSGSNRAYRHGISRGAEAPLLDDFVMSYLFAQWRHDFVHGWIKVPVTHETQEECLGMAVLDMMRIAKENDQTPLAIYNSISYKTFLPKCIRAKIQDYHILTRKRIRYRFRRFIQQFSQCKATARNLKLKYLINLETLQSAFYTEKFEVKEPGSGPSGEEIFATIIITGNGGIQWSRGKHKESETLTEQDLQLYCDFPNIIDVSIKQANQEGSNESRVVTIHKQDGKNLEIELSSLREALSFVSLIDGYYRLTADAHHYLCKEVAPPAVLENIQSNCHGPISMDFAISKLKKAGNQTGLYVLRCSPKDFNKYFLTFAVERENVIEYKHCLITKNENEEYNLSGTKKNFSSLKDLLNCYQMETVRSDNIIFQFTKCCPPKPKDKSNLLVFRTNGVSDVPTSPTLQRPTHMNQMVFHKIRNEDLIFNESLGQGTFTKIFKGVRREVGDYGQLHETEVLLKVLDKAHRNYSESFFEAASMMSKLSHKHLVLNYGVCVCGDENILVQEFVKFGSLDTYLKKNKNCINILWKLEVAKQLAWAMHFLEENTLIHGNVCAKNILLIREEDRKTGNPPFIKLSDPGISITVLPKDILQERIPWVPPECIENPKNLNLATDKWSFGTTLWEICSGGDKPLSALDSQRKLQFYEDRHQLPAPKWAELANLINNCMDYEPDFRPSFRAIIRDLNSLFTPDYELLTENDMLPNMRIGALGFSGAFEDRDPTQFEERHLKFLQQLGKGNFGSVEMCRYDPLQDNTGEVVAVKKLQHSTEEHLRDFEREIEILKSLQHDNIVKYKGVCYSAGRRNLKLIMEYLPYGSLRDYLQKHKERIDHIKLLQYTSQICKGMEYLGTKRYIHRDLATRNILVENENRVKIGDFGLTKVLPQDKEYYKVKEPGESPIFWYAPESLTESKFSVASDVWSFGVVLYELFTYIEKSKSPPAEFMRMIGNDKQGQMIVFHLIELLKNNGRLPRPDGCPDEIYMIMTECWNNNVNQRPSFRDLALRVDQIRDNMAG
How it was run: as §1

Ret (P07949) = target: T5, Ret (P07949) (Homo sapiens, UniProt P07949)
T5 construct: purchased PamGene (PamChip PTK array, Upstream Kinase Analysis)
How it was run: as §1

HER4 (Q15303) = target: T6, HER4 (Q15303) (Homo sapiens, UniProt Q15303)
T6 construct: purchased PamGene (PamChip PTK array, Upstream Kinase Analysis)
How it was run: as §1

Kit (P10721) = target: T7, Kit (P10721) (Homo sapiens, UniProt P10721)
T7 construct: purchased PamGene (PamChip PTK array, Upstream Kinase Analysis)
How it was run: as §1

CSK (P41240) = target: T8, CSK (P41240) (Homo sapiens, UniProt P41240)
T8 construct: purchased PamGene (PamChip PTK array, Upstream Kinase Analysis)
T8 sequence (P41240 whole entry): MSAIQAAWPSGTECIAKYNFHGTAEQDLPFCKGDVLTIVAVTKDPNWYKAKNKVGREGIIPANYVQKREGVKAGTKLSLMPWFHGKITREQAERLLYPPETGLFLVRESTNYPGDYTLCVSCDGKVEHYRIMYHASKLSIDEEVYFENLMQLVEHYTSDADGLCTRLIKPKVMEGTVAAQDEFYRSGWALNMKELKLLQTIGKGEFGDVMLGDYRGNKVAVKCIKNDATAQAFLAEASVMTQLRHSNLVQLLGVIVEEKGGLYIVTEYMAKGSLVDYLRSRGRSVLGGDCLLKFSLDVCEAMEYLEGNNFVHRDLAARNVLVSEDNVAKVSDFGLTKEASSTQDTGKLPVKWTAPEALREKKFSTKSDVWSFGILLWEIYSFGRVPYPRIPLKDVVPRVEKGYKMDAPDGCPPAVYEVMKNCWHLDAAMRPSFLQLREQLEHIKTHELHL
How it was run: as §1

EGFR (P00533) = target: T9, EGFR (P00533) (Homo sapiens, UniProt P00533)
T9 construct: purchased PamGene (PamChip PTK array, Upstream Kinase Analysis)
T9 sequence (P00533 25-1210): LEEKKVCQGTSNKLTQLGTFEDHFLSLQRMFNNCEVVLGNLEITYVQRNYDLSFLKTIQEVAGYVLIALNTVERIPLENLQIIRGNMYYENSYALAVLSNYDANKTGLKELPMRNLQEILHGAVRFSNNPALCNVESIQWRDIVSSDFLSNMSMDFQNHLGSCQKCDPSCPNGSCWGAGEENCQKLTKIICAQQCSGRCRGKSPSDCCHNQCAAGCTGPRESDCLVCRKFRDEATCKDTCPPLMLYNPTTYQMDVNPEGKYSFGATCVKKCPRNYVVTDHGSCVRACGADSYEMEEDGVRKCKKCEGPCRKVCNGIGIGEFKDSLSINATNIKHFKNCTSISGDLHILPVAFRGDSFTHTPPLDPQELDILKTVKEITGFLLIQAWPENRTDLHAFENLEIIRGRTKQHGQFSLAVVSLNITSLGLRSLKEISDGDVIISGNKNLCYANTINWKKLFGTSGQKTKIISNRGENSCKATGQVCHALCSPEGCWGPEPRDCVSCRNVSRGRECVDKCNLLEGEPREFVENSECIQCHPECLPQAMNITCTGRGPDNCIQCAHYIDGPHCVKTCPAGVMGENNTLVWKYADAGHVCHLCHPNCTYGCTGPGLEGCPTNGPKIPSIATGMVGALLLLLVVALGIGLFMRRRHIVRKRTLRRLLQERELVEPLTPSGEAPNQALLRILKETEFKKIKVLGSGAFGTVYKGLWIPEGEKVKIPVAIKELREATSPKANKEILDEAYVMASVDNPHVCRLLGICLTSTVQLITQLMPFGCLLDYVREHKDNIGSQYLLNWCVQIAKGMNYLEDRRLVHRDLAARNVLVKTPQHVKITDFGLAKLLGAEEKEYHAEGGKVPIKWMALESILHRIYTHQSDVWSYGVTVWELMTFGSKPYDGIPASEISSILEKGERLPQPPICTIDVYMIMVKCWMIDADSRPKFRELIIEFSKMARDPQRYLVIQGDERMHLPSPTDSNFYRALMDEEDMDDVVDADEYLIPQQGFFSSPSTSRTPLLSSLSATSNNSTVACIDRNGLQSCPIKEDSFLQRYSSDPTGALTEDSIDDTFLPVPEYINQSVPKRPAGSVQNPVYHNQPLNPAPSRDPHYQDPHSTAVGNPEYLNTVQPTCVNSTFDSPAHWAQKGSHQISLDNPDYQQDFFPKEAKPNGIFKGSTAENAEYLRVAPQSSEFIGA
How it was run: as §1

TRKC (Q16288) = target: T10, TRKC (Q16288) (Homo sapiens, UniProt Q16288)
T10 construct: purchased PamGene (PamChip PTK array, Upstream Kinase Analysis)
T10 sequence (Q16288 32-839): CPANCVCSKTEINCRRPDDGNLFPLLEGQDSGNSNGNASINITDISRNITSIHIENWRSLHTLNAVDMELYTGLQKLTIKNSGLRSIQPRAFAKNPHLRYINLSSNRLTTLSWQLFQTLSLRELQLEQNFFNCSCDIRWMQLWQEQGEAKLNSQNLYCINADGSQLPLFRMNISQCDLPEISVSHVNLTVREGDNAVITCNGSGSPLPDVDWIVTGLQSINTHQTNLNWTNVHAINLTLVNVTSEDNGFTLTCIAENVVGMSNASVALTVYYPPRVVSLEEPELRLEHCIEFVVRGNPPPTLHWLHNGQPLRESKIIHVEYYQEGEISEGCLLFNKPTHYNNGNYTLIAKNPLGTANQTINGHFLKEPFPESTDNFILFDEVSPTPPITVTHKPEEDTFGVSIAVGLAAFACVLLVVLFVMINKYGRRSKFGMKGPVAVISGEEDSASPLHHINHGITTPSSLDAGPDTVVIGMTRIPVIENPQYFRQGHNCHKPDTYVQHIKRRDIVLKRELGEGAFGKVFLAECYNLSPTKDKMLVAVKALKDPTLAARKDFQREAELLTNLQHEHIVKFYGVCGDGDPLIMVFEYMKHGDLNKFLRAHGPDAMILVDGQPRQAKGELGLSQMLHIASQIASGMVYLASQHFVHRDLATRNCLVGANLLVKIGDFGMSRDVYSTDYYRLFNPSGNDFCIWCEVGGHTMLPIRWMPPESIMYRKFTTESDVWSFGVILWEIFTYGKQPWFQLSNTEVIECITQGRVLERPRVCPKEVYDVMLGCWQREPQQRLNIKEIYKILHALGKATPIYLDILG
How it was run: as §1

Syk (P43405) = target: T11, Syk (P43405) (Homo sapiens, UniProt P43405)
T11 construct: purchased PamGene (PamChip PTK array, Upstream Kinase Analysis)
How it was run: as §1

Fyn (P06241) = target: T12, Fyn (P06241) (Homo sapiens, UniProt P06241)
T12 construct: purchased PamGene (PamChip PTK array, Upstream Kinase Analysis)
T12 sequence (P06241 whole entry): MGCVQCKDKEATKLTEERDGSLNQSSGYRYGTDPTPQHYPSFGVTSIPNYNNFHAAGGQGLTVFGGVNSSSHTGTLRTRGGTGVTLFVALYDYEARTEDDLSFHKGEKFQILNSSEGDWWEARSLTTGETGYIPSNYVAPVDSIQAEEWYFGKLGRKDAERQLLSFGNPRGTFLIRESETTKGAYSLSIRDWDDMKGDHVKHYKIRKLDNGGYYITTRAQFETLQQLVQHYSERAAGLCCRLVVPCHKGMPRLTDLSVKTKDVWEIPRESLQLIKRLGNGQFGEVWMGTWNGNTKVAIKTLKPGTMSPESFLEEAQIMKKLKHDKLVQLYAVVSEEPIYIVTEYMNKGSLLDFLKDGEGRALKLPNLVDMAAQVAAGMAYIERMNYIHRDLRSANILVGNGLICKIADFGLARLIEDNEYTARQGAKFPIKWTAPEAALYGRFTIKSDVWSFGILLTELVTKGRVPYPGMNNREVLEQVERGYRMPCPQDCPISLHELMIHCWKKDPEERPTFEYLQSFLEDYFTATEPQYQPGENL
How it was run: as §1

COc1ccc(/C=C2\N=C(C)N(c3ccc(CC(=O)NCc4ccccc4)cc3)C2=O)cc1 [Compound 4c, (Z)-N-Benzyl-2-(4-(4-(4-methoxybenzylidene)-2-methyl-5-oxo-4,5-dihydro-1H-imidazol-1-yl)phenyl)acetamide]
Mean Final score (Kinase score) (FAK2 (Q14289)): 2.241
Mean Kinase Statistic (FAK2 (Q14289)): -1.142
Mean Significance Score (FAK2 (Q14289)): 2.048
Mean Specificity Score (FAK2 (Q14289)): 0.216
Mean Final score (Kinase score) (ZAP70 (P43403)): 1.771
Mean Kinase Statistic (ZAP70 (P43403)): -1.015
Mean Significance Score (ZAP70 (P43403)): 1.836
Mean Specificity Score (ZAP70 (P43403)): 0.009048
Mean Final score (Kinase score) (FGFR2 (P21802)): 2.386
Mean Kinase Statistic (FGFR2 (P21802)): -1.189
Mean Significance Score (FGFR2 (P21802)): 2.048
Mean Specificity Score (FGFR2 (P21802)): 0.3335
Mean Significance Score (JAK2 (O60674)): 2.048
Mean Specificity Score (JAK2 (O60674)): 1.216
Mean Final score (Kinase score) (JAK2 (O60674); listed as KIM-161): 3.19 and 3.191
Mean Kinase Statistic (JAK2 (O60674); listed as KIM-161): −1.43
Mean Significance Score (Ret (P07949)): 2.048
Mean Specificity Score (Ret (P07949)): 1.108
Mean Final score (Kinase score) (Ret (P07949); listed as KIM-161): 3.14 and 3.143
Mean Final score (Kinase score) (HER4 (Q15303)): 2.227
Mean Kinase Statistic (HER4 (Q15303)): -1.109
Mean Significance Score (HER4 (Q15303)): 2.048
Mean Specificity Score (HER4 (Q15303)): 0.2042
Mean Final score (Kinase score) (Kit (P10721)): 2.581
Mean Kinase Statistic (Kit (P10721)): -1.291
Mean Significance Score (Kit (P10721)): 2.048
Mean Specificity Score (Kit (P10721)): 0.5837
Mean Significance Score (CSK (P41240)): 2.048
Mean Specificity Score (CSK (P41240)): 1.0649
Mean Final score (Kinase score) (CSK (P41240); listed as KIM-161): 3.09
Mean Final score (Kinase score) (EGFR (P00533)): 2.116
Mean Kinase Statistic (EGFR (P00533)): -1.053
Mean Significance Score (EGFR (P00533)): 2.048
Mean Specificity Score (EGFR (P00533)): 0.03887
Mean Final score (Kinase score) (TRKC (Q16288)): 2.207
Mean Kinase Statistic (TRKC (Q16288)): -1.079
Mean Significance Score (TRKC (Q16288)): 2.048
Mean Specificity Score (TRKC (Q16288)): 0.1464
Mean Final score (Kinase score) (Syk (P43405)): 2.113
Mean Kinase Statistic (Syk (P43405)): -1.091
Mean Significance Score (Syk (P43405)): 2.048
Mean Specificity Score (Syk (P43405)): 0.02997
Mean Final score (Kinase score) (Fyn (P06241)): 2.45
Mean Kinase Statistic (Fyn (P06241)): -1.236
Mean Significance Score (Fyn (P06241)): 2.048
Mean Specificity Score (Fyn (P06241)): 0.4193
